Measurements as given in patent US20040058309A1, “Plasma supplement and use in liver assist systems” (priority 2003, published 2004).
“Also recorded” adds a separate entry of the source. Read-outs that look alike come from different tables or passages of the source.

Columns and labels:
Rat hepatocytes [1] = assay: Albumin synthesis rate of rat hepatocytes (collagen sandwich) exposed to supplemented citrated human plasma; assay type: cell-based; conditions: for Albumin synthesis (in words) vs plasma with BME amino acid supplementation: 10 mM as only amino acid supplementation of citrated plasma
Experimental: (§1) Type I collagen was prepared from Lewis rat tail tendons as previously described in Dunn et al. (supra). […] Six-well culture plates were coated with 0.5 ml of collagen gelling solution and the coated plates were incubated at 37° C. for 1 hour to allow for gelation. The hepatocytes were suspended in culture medium and seeded at a density of 1.0×10^6 cell per well. The standard hepatocyte culture medium consisted of DMEM supplemented with 10% FBS, 0.5 U/ml insulin, 14 ng/ml glucagon, 20 ng/ml EGF, 7.5 μg/ml hydrocortisone, 200 U/ml penicillin, and 200 μg/ml streptomycin. After incubating at 37° C. in a humidified gas mixture of 90% air/10% CO2 for 24 hours, the culture medium was removed and the cells were overlaid with a second 0.5 ml layer of collagen gelling solution to form the collagen sandwich. After gelling for 45 minutes at 37° C., 1 ml of fresh medium was added. Fresh medium (1 ml) was supplied to the cultures daily after removal of the previous day's medium. The hepatocytes were cultured for 6 days in standard culture medium prior to plasma exposure.
(§2) Expired plasma from a blood bank was pooled, aliquoted, and kept frozen until used for experiments. Plasma supplements were prepared in concentrated form and added individually to plasma as described in the following examples.
(§3) In each set of experiments, components of the supplementation to be included or excluded were designated according to the result from prior experiments. On the 7th day after isolation, the culture medium was removed and hepatocytes were fed with 1 ml of plasma. Cells were fed with fresh plasma daily thereafter. Control cultures were maintained in hepatocyte culture medium throughout. For the hormone study only, the 6-day-old collagen double-gel cultures were washed 10 times with unsupplemented DMEM to remove residual hormones in the collagen gel, and twice with medium or plasma identical to the following experimental condition.
(§4) Culture supernatants were collected daily after a 24 hour culture period. […] A standard curve was derived using background culture medium prepared by incubation with an empty collagen gel for the same period as the cell culture, and chromatographically purified rat albumin (Cappel Laboratories). Urea concentration in standard culture medium and in plasma was measured by the specific reaction of diacetyl monoxime with urea (Blood Urea Nitrogen Assay Kit, Sigma Diagnostics).
(§5) Rates of secretion were normalized to the number of cells initially seeded. […] The statistical significance of observed differences was determined by two-way analysis of variance and post hoc Tukey's test. An alpha value of 5% was considered significant.

Rat hepatocytes [2] = assay: Urea synthesis rate of rat hepatocytes (collagen sandwich) exposed to supplemented citrated human plasma; assay type: cell-based
Experimental: as §1, §2, §3, §4, §5

[3] = citrated human plasma + 5× medium concentrate, day 5 of plasma exposure, vs fully supplemented plasma

Compound | Effect on albumin synthesis of removing (or reducing) the component in the plasma supplementation (Rat hepatocytes [1]; [3]) | Effect on urea synthesis of removing (or reducing) the component in the plasma supplementation (Rat hepatocytes [2]; [3]) | also measured
[Cl-].[Cl-].[Mg+2] [magnesium chloride] |  |  | Effect on albumin synthesis of removing (or reducing) the component in the plasma supplementation (Rat hepatocytes [1]): significantly less; Effect on urea synthesis of removing (or reducing) the component in the plasma supplementation (Rat hepatocytes [2]): significantly less
C[C@]12CCC(=O)C=C1CC[C@@H]1[C@@H]2[C@@H](O)C[C@@]2(C)[C@H]1CC[C@]2(O)C(=O)CO [hydrocortisone, reference compound] | significantly reduced |  | 
insulin [reference compound] | significantly reduced |  | 
NCC(=O)O [glycine] |  |  | Albumin synthesis (in words) vs plasma with BME amino acid supplementation (Rat hepatocytes [1]; day 5 of plasma exposure): significantly less albumin; Decrease of urea synthesis rate (Rat hepatocytes [2]; 10 mM as only amino acid supplementation of citrated plasma, day 5 of plasma exposure, vs BME amino acids): 43%
NC(=O)CC[C@H](N)C(=O)O [glutamine] |  |  | Albumin synthesis (in words) vs plasma with BME amino acid supplementation (Rat hepatocytes [1]; day 5 of plasma exposure): significantly less albumin; Urea synthesis rate (in words) (Rat hepatocytes [2]; 10 mM as only amino acid supplementation of citrated plasma, day 5 of plasma exposure): maintained
[Ca+2].[Cl-].[Cl-] [calcium chloride] |  |  | Effect on albumin synthesis of removing (or reducing) the component in the plasma supplementation (Rat hepatocytes [1]): significantly less; Effect on urea synthesis of removing (or reducing) the component in the plasma supplementation (Rat hepatocytes [2]): significantly less
[Cl-].[K+] [potassium chloride] | no significant effect | no significant effect | 
glucagon [reference compound] | significantly reduced | decreased significantly | 
[Cl-].[Na+] [sodium chloride] | increased; also recorded: enhanced | increased; also recorded: enhanced | 
